Source: ChEMBL document CHEMBL1158866, “Bioactive labdane diterpenoids from Renealmia alpinia collected in the Suriname rainforest” (J Nat Prod, 1997)
Values after ≈ are worked out from the molar mass of the structure shown. Active and inactive are the calls of the source. No cut-off for these calls is given here.

Tests used:
Saccharomyces cerevisiae = assay: Antimicrobial activity against yeast Sc7; type: functional
M109 = assay: Cytotoxicity against mouse M109 cells; type: functional, cell-based
Candida tropicalis = assay: Antimicrobial activity against Candida tropicalis; type: functional
KB = assay: Cytotoxicity against human KB cells; type: functional; conditions: read-out: ED50 (the source's name)
[1] = tested on: Meyerozyma guilliermondii; assay: Antimicrobial activity against sCandida guilliermondii; type: functional

Row | SMILES | IC12 (Saccharomyces cerevisiae) | IC50 (M109) | MIC (Candida tropicalis) | Activity (M109) | EC50 (KB) | MIC [1]
1 | C=C1CC[C@H]2C(C)(C)CCC[C@]2(C)[C@H]1[C@@H]1C=C(C=O)C[C@H](O)O1 | 3 µg/mL | 2.6 µg/mL (≈ 8.16 µM) |  |  |  | 
2 | C=C1CC[C@H]2C(C)(C)CCC[C@]2(C)[C@H]1C/C=C(/C=O)CC=O | 46 µg/mL |  | 6.25 µg/mL (≈ 20.7 µM) | inactive | 40 µg/mL (≈ 132 µM) | 6.25 µg/mL (≈ 20.7 µM)
3 | C=C1CC[C@H]2C(C)(C)CCC[C@]2(C)[C@H]1C/C=C(/C=O)CC(=O)O | 200 µg/mL |  |  | inactive |  | 
